{"source": "paper PMC10215352", "about": "(Biology, 2023)", "type_in_all_cases": "cell-based", "key": {"YdgR [1]": {"biological_target": "T1, YdgR (Escherichia coli, UniProt P77304)", "T1 construct": "gene dtpA; full-length, C-terminal His6 tag, expressed in E. coli BL21(DE3) pLysS, whole-cell uptake", "T1 sequence (P77304 1-500)": "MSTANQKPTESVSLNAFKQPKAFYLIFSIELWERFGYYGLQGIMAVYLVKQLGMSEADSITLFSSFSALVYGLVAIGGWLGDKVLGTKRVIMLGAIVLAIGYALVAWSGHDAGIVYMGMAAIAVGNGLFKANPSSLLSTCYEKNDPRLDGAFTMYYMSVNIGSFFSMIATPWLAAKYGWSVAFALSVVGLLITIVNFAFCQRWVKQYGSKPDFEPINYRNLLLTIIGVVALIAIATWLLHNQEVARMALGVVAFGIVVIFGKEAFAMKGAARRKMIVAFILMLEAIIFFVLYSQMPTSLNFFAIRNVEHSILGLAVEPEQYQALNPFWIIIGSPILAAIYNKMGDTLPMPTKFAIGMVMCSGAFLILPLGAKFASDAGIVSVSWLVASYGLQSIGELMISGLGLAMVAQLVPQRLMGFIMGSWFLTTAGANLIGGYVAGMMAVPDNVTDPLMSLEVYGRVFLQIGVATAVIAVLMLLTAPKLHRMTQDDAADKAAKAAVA", "experiment": "inhibition of β-Ala-Lys-AMCA uptake in E. coli", "conditions": "10 mM peptide, 0.5 mM labelled substrate β-Ala-Lys-AMCA, pH 6.5, 37 °C; competing substrate"}, "YdgR [2]": {"biological_target": "T1, YdgR", "experiment": "fluorescent uptake in E. coli", "conditions": "0.5 mM, labelled compound, pH 6.5, 37 °C"}, "YjdL": {"biological_target": "T2, YjdL (Escherichia coli, UniProt P39276)", "T2 construct": "gene dtpC; full-length, C-terminal His6 tag, expressed in E. coli BL21(DE3) pLysS, whole-cell uptake", "T2 sequence (P39276 1-485)": "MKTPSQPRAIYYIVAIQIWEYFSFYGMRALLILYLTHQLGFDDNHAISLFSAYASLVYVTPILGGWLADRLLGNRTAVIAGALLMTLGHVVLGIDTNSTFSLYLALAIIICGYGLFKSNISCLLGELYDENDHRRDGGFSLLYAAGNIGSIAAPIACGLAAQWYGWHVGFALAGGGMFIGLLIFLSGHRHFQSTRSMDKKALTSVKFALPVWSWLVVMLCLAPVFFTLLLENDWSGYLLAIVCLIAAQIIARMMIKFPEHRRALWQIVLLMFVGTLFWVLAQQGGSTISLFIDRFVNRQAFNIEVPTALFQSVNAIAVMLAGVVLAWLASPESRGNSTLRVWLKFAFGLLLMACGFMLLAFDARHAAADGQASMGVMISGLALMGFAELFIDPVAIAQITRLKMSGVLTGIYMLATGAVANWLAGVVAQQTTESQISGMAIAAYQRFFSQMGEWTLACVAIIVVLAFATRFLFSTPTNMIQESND", "experiment": "fluorescent uptake in E. coli", "conditions": "0.5 mM, labelled compound, cells preloaded with AA, with and without CCCP, 37 °C"}}, "note": "Peptide text beside a SMILES is read from it."}
{"smiles": "C[C@H](N)C(=O)N[C@@H](C)C(=O)O", "note": "[AA] (H-Ala-Ala-OH)", "values": [{"measurement": "uptake inhibition", "setting": "YdgR [1]", "value": "its uptake was significantly decreased in the presence of AA and AAA"}]}
{"smiles": "Cc1c(CC(=O)NCCCC[C@H](NC(=O)CCN)C(=O)O)c(=O)oc2cc(N)ccc12", "note": "[β-Ala-Lys-AMCA]", "values": [{"measurement": "fluorescent uptake in E. coli", "setting": "YdgR [2]", "value": "Overall β-Ala-Lys-AMCA uptake by CPEPOT was significantly lower than YdgR"}, {"measurement": "fluorescent uptake in E. coli", "setting": "YjdL", "value": "YjdL and YdgR exhibited a significant decline in uptake activity in the presence of CCCP"}]}
